Where “and” joins values, the source holds several entries; their conditions need not be identical. Equal values may be shown once. Entries after “also recorded” stand apart in the source; their conditions may differ.
Experiments:
[1] = test system: PDE10A; design: method as in PMID 27213312, PMID 26016549, PMID 29498659; details: Figure 1; cited from earlier work
[2] = target: T1, PDE10A1 (Homo sapiens, UniProt Q9Y233); assay: PDE10A1 radiometric enzyme inhibition assay; details: for Inhibition of PDE Sub-Types (%) 10A1: compound at 1 µM
Description: (§1) The phosphodiesterase assays were performed using recombinant human PDE enzymes expressed in a baculoviral system. […] The radiometric assay was a modification of the two-step method of Thompson and Appleman [45], which was adapted for 96-well plate format.
(§2) Firstly, tritium-labeled cyclic AMP or cyclic GMP was hydrolyzed to 5′-AMP or 5′-GMP by phosphodiesterase. The 5′-AMP or 5′-GMP was then further hydrolyzed to adenosine or guanosine by nucleotidase in snake venom. An anion-exchange resin bound all charged nucleotides and left [^3H]adenosine or [^3H]guanosine as the only labeled compound to be counted by liquid scintillation. Briefly, 50 µL of diluted human PDE enzyme were incubated with 50 µL of [^3H]-cAMP or [^3H]-cGMP and 11 µL of 50% DMSO (or compound dilution) for 20 min (at 30 °C). Reactions were carried out in a Greiner 96-deep well 1-mL master-block. The enzyme was diluted in 20 mM Tris HCl pH 7.4 and [^3H]-cAMP or [^3H]-cGMP are diluted in 10 mM MgCl2, 40 mM Tris HCl pH 7.4. The reaction is terminated by denaturing the PDE enzyme (at 70 °C for 2 min), after which 25 µL of snake venom nucleotidase were added and incubated for 10 min (at 30 °C). Plates were centrifuged for 9 seconds before incubation. After incubation, 200 µL of Dowex resin were added, and the plate was shaken for 20 min then centrifuged for 3 min at 2500 r.p.m. Fifty microliters of supernatant were removed and added to 200 µL of MicroScint-20 in white plates (Greiner 96-well Optiplate) and shaken for 30 min before reading on a Perkin Elmer TopCount Scintillation Counter.
(§3) Compounds were tested at a concentration of 10 nM against human PDE2A3 and at 1 µM for PDE4A1, PDE5A, PDE6AB, PDE9A1, and PDE10A1. The percentage of inhibition of the compounds and standard inhibitors was determined and compared to historical assay data to ensure that they fell within acceptable ranges.

[3] = target: T2, PDE9A1 (Homo sapiens, UniProt O76083); assay: PDE9A1 radiometric enzyme inhibition assay; format: biochemical; details: compound at 1 µM; read-out: Inhibition of PDE Sub-Types (%) 9A1
T2 construct: purchased SB Drug Discovery (Scotland, U.K.); host or cells: baculoviral system

[4] = target: T3, PDE4A1 (Homo sapiens, UniProt P27815); assay: PDE4A1 radiometric enzyme inhibition assay; format: biochemical; details: compound at 1 µM; read-out: Inhibition of PDE Sub-Types (%) 4A1
T3 construct: purchased SB Drug Discovery (Scotland, U.K.); host or cells: baculoviral system

[5] = target: T1, PDE10A1; assay: biochemical
Description: as §1, §2, §3

[6] = target: T4, PDE5A1 (Homo sapiens, UniProt O76074); assay: PDE5A1 radiometric enzyme inhibition assay; format: biochemical; details: compound at 1 µM; read-out: Inhibition of PDE Sub-Types (%) 5A1
T4 construct: purchased SB Drug Discovery (Scotland, U.K.); host or cells: baculoviral system

[7] = target: T5, human PDE2A3 (Homo sapiens, UniProt O00408); assay: biochemical
Description: as §1, §2, §3

[8] = target: T5, human PDE2A3; assay: PDE2A3 radiometric enzyme inhibition assay; details: for Inhibition of PDE Sub-Types (%) 2A3: compound at 10 nM; for Selectivity Ratio (PDE10A/PDE2A): ratio of IC50 PDE10A to IC50 PDE2A, fold
Description: as §1, §2, §3

[9] = Incubation with mouse liver microsomes, HPLC-UV-MS
Description: After protein precipitation by addition of acetonitrile and subsequent centrifugation, the supernatant was examined by HPLC-UV-MS.
Analogously, preincubated NADPH (2 mM) was added, and the mixtures were gently shaken at 37 °C. After 90 min, portions of 1.0 mL of cold acetonitrile (−20 °C) were added, respectively, followed by vigorous shaking (30 s), cooling on ice (4 min), and centrifugation at 14,000 rpm (10 min). Supernatants were concentrated at 50 °C under a flow of nitrogen to provide residual volumes of 40–60 µL, which were reconditioned by adding acetonitrile/water 1:1 (v/v) to obtain samples of 100 µL, which were stored at 4 °C until analyzed by HPLC-UV-MS.
HPLC-UV-MS analyses were performed on a ReproSil-Pur 120 C18-AQ-column, 125 mm × 3 mm, 3 µm (Dr. Maisch GmbH, Ammerbuch, Germany) equipped with an appropriate precolumn at 25 °C and a flow rate of 0.7 mL/min. The solvent system consisted of Eluent A: water, containing 2 mM ammonium acetate, and Eluent B: water/acetonitrile 20/80 (v/v), containing 2 mM ammonium acetate. Two methods were applied. Method A (gradient elution, % acetonitrile): 0–1.5 min, 10%; 1.5–10 min, 10–80%; 10-13 min, 80%; 13–16 min 10%. Method B (isocratic elution, % acetonitrile): 0–25 min, 42%. […] MSQ Plus single quadrupole mass spectrometer was operated in positive electrospray ionization mode: probe temperature 500 °C, needle voltage 5 V, cone voltage 75 V.

[10] = test system: PDE2A; details: cited from earlier work; for IC50: Figure 1
[11] = target: T6, PDE11A (Homo sapiens, UniProt Q9HCR9); assay: PDE11A radiometric enzyme inhibition assay; format: biochemical; details: measured at 1 µM
T6 construct: purchased SB Drug Discovery (Scotland, U.K.); host or cells: baculoviral system

[12] = target: T7, PDE7A (Homo sapiens, UniProt Q13946); assay: PDE7A radiometric enzyme inhibition assay; format: biochemical; details: measured at 1 µM
T7 construct: purchased SB Drug Discovery (Scotland, U.K.); host or cells: baculoviral system

[13] = target: T8, PDE1A3 (Homo sapiens, UniProt P54750); assay: PDE1A3 radiometric enzyme inhibition assay; format: biochemical; details: measured at 1 µM
T8 construct: purchased SB Drug Discovery (Scotland, U.K.); host or cells: baculoviral system

[14] = target: T9, PDE8A1 (Homo sapiens, UniProt O60658); assay: PDE8A1 radiometric enzyme inhibition assay; format: biochemical; details: measured at 1 µM
T9 construct: purchased SB Drug Discovery (Scotland, U.K.); host or cells: baculoviral system

[15] = target: T10, PDE3A (Homo sapiens, UniProt Q14432); assay: PDE3A radiometric enzyme inhibition assay; format: biochemical; details: measured at 1 µM
T10 construct: purchased SB Drug Discovery (Scotland, U.K.); host or cells: baculoviral system

[16] = target: T11, PDE6AB (Homo sapiens, UniProt P16499+P35913); assay: PDE6AB radiometric enzyme inhibition assay; format: biochemical; details: measured at 1 µM
T11 construct: purchased SB Drug Discovery (Scotland, U.K.); host or cells: baculoviral system

T5 sequence (O00408 whole entry): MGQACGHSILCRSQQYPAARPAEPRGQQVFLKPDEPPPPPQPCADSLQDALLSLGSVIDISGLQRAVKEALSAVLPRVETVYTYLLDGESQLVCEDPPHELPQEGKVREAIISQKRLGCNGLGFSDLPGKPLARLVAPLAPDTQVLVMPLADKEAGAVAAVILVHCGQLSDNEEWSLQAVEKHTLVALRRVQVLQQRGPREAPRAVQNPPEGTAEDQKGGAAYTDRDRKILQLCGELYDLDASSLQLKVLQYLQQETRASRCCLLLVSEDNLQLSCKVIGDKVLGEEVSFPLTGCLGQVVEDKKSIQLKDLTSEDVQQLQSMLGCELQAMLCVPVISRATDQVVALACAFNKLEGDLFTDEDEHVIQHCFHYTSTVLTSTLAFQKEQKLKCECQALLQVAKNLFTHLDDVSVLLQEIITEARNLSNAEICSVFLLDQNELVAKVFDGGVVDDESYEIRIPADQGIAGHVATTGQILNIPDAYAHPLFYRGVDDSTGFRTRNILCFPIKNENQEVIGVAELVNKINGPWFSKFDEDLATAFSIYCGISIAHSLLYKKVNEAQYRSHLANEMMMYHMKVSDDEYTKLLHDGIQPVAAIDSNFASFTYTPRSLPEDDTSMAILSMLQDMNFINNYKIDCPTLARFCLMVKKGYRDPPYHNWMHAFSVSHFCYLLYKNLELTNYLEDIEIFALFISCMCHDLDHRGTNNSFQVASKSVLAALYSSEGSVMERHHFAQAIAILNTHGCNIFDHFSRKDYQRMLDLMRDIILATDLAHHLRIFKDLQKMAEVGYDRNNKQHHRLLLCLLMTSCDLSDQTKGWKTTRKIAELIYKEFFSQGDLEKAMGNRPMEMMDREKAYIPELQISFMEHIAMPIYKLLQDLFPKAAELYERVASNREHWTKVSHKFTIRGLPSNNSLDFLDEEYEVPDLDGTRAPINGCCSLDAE
T3 sequence (P27815 1-647 isoform P27815-4): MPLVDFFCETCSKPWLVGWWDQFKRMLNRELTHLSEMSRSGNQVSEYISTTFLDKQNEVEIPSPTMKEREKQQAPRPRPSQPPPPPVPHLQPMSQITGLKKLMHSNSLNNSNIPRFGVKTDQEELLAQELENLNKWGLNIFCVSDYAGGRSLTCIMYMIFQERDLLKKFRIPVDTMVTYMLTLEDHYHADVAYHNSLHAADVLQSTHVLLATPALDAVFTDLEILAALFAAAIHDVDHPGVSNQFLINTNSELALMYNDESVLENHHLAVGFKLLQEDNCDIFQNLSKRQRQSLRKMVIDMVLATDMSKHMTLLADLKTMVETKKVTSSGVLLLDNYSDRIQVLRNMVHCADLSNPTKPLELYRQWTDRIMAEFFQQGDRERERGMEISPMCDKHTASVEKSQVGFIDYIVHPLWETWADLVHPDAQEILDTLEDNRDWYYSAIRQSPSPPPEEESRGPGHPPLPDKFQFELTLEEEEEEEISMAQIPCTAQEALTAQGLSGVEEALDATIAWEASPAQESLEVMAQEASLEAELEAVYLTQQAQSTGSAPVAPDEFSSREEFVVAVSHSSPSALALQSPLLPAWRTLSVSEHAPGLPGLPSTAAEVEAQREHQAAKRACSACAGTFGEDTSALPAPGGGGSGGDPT
T2 sequence (O76083 whole entry): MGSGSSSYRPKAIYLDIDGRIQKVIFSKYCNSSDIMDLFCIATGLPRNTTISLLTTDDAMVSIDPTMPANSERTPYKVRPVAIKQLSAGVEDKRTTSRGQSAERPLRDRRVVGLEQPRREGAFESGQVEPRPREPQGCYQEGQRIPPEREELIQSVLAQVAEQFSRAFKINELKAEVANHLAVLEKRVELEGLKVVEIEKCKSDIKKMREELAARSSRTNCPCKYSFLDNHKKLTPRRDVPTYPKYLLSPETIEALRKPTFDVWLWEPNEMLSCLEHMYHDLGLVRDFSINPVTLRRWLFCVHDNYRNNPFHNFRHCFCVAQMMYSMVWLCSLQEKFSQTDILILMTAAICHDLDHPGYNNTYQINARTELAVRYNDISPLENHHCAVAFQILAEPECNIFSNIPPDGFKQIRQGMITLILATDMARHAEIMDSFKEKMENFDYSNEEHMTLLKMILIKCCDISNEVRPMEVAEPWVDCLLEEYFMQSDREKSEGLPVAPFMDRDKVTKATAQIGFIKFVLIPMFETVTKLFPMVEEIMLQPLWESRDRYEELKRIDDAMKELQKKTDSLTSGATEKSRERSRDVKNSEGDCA
T1 sequence (Q9Y233 1-779 isoform Q9Y233-1): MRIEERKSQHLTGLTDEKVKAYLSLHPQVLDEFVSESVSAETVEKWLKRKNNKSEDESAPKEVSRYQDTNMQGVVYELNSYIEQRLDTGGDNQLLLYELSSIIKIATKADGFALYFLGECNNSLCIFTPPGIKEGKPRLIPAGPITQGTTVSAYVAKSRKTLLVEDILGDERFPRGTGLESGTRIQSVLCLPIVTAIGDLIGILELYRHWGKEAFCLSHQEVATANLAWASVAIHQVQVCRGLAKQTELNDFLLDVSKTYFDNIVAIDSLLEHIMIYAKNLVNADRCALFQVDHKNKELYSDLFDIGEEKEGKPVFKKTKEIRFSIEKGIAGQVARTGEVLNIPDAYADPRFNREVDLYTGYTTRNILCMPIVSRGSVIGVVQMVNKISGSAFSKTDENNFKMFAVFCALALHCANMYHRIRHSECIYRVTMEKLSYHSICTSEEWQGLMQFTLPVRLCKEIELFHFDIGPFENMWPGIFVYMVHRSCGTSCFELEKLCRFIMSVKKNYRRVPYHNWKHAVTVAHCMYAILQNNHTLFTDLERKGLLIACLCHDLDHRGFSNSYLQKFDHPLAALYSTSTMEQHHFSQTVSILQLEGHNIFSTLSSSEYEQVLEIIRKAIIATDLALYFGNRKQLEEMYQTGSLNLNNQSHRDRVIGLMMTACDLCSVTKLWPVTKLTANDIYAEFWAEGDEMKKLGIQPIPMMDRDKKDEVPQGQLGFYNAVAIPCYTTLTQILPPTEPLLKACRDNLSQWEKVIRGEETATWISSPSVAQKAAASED
T6 sequence (Q9HCR9 whole entry): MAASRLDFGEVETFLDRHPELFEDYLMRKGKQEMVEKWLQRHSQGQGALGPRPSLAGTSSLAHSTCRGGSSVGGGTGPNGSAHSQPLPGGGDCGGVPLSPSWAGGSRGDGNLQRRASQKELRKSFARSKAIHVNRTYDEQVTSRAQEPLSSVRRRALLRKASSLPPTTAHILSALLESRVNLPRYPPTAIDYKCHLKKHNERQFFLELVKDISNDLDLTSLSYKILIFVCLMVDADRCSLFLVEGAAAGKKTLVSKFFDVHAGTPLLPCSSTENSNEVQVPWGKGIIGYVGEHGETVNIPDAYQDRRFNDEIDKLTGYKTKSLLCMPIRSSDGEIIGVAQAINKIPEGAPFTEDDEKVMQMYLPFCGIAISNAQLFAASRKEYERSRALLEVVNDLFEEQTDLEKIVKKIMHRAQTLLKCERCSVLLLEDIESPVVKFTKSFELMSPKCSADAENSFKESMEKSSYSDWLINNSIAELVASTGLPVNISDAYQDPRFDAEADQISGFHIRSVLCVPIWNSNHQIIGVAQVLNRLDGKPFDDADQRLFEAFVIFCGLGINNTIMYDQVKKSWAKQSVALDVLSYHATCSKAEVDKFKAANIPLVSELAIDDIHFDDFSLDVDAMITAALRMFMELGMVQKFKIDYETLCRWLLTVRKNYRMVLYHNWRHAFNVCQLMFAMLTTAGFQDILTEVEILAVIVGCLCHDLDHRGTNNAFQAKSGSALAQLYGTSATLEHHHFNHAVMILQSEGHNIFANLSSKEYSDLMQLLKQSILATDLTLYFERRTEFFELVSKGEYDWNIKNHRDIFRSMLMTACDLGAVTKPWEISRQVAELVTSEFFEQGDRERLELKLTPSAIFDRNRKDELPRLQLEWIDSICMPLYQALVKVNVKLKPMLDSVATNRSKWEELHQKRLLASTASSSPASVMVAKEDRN
T7 sequence (Q13946 whole entry): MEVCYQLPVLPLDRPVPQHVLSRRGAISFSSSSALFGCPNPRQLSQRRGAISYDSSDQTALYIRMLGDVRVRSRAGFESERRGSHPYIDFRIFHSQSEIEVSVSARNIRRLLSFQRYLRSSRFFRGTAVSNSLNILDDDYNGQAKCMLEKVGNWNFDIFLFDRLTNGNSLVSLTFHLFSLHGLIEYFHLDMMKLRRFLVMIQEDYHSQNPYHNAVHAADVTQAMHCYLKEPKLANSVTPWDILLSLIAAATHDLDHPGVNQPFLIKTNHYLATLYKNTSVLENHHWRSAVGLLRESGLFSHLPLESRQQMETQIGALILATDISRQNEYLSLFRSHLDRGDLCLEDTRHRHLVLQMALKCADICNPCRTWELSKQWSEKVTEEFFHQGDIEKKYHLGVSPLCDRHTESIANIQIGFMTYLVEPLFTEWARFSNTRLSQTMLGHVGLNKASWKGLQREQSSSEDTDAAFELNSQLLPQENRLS
T8 sequence (P54750 whole entry): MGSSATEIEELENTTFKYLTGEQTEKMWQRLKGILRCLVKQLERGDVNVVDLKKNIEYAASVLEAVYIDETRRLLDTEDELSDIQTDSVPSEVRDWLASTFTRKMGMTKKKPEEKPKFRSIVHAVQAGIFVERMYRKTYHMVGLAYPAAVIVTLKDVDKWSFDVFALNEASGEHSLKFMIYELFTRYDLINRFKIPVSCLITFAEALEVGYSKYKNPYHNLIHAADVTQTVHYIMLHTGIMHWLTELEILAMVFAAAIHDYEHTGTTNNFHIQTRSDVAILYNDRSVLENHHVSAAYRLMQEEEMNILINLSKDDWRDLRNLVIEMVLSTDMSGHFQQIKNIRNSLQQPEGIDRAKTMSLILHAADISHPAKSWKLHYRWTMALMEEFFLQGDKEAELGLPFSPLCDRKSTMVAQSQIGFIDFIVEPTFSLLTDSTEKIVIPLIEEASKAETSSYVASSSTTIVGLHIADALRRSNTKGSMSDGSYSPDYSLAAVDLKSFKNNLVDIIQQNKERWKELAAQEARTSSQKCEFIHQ

Structure (SMILES)	IC50 [1] [nM]	Inhibition of PDE Sub-Types (%) 10A1 [2] [%]	inhibition at 1 µM [3] [%]	inhibition at 1 µM [4] [%]	inhibition at 1 µM [6] [%]	Inhibition of PDE Sub-Types (%) 2A3 [8]	IC50 [10] [nM]	other results
CCCCOc1ccc(F)c(-c2nc(C)c3nnc4ccc(OCCF)nc4n23)c1 [TA5]	> 1000							
COc1ccc(F)c(-c2nc(C)c3nnc4ccc(-c5ccnc(F)c5)cc4n23)c1 [BIT6, 1-(2-Fluoro-5-methoxyphenyl)-8-(2-fluoropyridin-4-yl)-3-methylbenzo[e]imidazo[5,1-c][1,2,4]triazine]		74.0	28.4	54.2	13.6			IC50 [5]: 168 nM; IC50 [7]: 65.1 nM; Inhibition of PDE Sub-Types (%) 2A3 ([8]; 0.01 µM): 56% and 56.6%; Selectivity Ratio (PDE10A/PDE2A) [8]: 2.5
COc1ccc(F)c(-c2nc(C)c3nnc4ccc(-c5ccncc5)cc4n23)c1 [BIT9, 1-(2-Fluoro-5-methoxyphenyl)-3-methyl-8-(pyridin-4-yl)benzo[e]imidazo[5,1-c][1,2,4]triazine]		96.6	17.5	86.8	57.7	80.5%		IC50 [5]: 20.2 nM; IC50 [7]: 17.7 nM; Selectivity Ratio (PDE10A/PDE2A) [8]: 1.1
CCCCOc1ccc(F)c(-c2nc(C)c3nnc4ccc(OC)nc4n23)c1 [TA1, reference compound]			< 0	24.9	3.08			
COc1ccc(Cl)c(-c2nc(C)c3nnc4ccc(-c5cccnc5F)cc4n23)c1 [BIT5, 1-(2-Chloro-5-methoxyphenyl)-8-(2-fluoropyridin-3-yl)-3 methylbenzo[e]imidazo[5,1-c][1,2,4]triazine]		22.1	< 0	< 0	< 0	NI (NI: No Inhibition)		Selectivity over PDE10A compared to BIT7 [2]: four
C[C@]12CC[C@H]3[C@@H](CCC4=CC(=O)CC[C@@]43C)[C@@H]1CC[C@@H]2O [testosterone, reference compound]								Conversion of positive control substrate ([9]; MLM with NADPH, confirmed by HPLC): complete conversion
Cc1nc(-c2cc(OCC3(C)COC3)ccc2Cl)n2c1nnc1ccc(-c3ccnc(F)c3)cc12 [BIT3, 1-(2-Chloro-5-((3-methyloxetan-3-yl)methoxy)phenyl)-8-(2-fluoropyridin-4-yl)-3-methylbenzo[e]imidazo[5,1-c][1,2,4]triazine]		28.2	< 0	72.7	< 0	13.2%		
COc1ccc2nnc3c(C)nc(-c4cc(OCCCCF)ccc4F)n3c2n1 [TA4]	913						7.3	Selectivity for PDE2A over PDE10A [10]: 125 fold
COc1ccc(Cl)c(-c2nc(C)c3nnc4c(OC)cc(F)cc4n23)c1 [II]	2.45						108	
COc1ccc(Cl)c(-c2nc(C)c3nnc4ccc(-c5cncc(F)c5)cc4n23)c1 [BIT7, 1-(2-Chloro-5-methoxyphenyl)-8-(3-fluoropyridin-5-yl)-3 methylbenzo[e]imidazo[5,1-c][1,2,4]triazine]		87.0	11.5	65.7	25.1			
COc1ccc(F)c(-c2nc(C)c3nnc4ccc(-c5cccnc5)cc4n23)c1 [BIT8, 1-(2-Fluoro-5-methoxyphenyl)-3-methyl-8-(pyridin-3-yl)benzo[e]imidazo[5,1-c][1,2,4]triazine]		55.5	< 0	13.9	36.2	NI (NI: No Inhibition)		
COc1ccc(Cl)c(-c2nc(C)c3nnc4ccc(-c5ccc(F)nc5)cc4n23)c1 [BIT4, 1-(2-Chloro-5-methoxyphenyl)-8-(6-fluoropyridin-3-yl)-3 methylbenzo[e]imidazo[5,1-c][1,2,4]triazine]		10.8	< 0	< 0	< 0	2.63%		Selectivity over PDE10A compared to BIT7 [2]: eight
Cc1nc(-c2cc(OCC3(C)COC3)ccc2Cl)n2c1nnc1ccc(-c3ccc(F)nc3)cc12 [BIT2, 1-(2-Chloro-5-((3-methyloxetan-3-yl)methoxy)phenyl)-8-(6-fluoropyridin-3-yl)-3-methylbenzo[e]imidazo[5,1-c][1,2,4]triazine]		2.46	< 0	64.1	< 0	8.52%		
COc1ccc(Cc2nn3c([C@H](CCCc4ccccc4)[C@H](C)O)nc(C)c3c(=O)[nH]2)cc1OC [BAY 60-7550]							4.7	
COc1ccc(Cl)c(-c2nc(C)c3nnc4ccc(-c5ccnc(F)c5)cc4n23)c1 [BIT1, 1-(2-Chloro-5-methoxyphenyl)-8-(2-fluoropyridin-4-yl)-3methylbenzo[e]imidazo[5,1-c][1,2,4]triazine]			< 0	58.6	29.3			inhibition at 1 µM [11]: 14.5%; inhibition at 1 µM [12]: 16.4%; inhibition at 1 µM [13]: 12.6%; inhibition at 1 µM [14]: 23.3%; inhibition at 1 µM [15]: 20%; Metabolic stability in vitro ([9]; MLM 1 mg/mL, NADPH 2 mM, 20 µM compound, 37 °C, 90 min): unchanged BIT1 could still be detected in high amounts; also recorded: considerable metabolic stability; also recorded: sufficiently stable; inhibition at 1 µM [16]: 16.8%
COc1ccc(Cl)c(-c2nc(C)c3nnc4ccc(F)cc4n23)c1 [III]	183						20.1	
COc1cc(Br)cc2c1nc(C)c1c(C)nc(-c3ccc(F)nc3)n12 [AQ28A]	2.95						> 1000	
COc1ccc2nnc3c(C)nc(-c4cc(OCCCF)ccc4F)n3c2n1 [TA3]	318						11.4	Selectivity for PDE2A over PDE10A [10]: 28 fold
